Columns and labels:
Echinochloa crus-galli [1] = assay: Test Example 2: herbicidal effect test by treatment during growing period in paddy rice cultivation (seven days after seeding); format: in vivo; conditions: 120 g/10a active ingredient, assessed 14 days after treatment, dry weight vs untreated area; for pest or weed control at 1200 g/ha: Echinochloa crus-galli, 336 h, read-out: herbicidal rate (%) Echinochloa crus-galli
In short: (§1)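 Herbicidal rate (%) = {1 − treated/untreated mean plant dry weight} × 100, assessed in duplicate 14 days post-treatment. Emulsion formulations were diluted in water and dropped onto flooded (about 3 cm) paddy pots 7 days after seeding, giving 120 g a.i. per 10 ares. Plants were grown in a glass greenhouse.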

Scirpus juncoides [2] = assay: as above; format: in vivo; conditions: 120 g/10a active ingredient, assessed 14 days after treatment, dry weight vs untreated area; for pest or weed control at 1200 g/ha: Schoenoplectiella juncoides, 336 h, read-out: herbicidal rate (%) Scirpus juncoides
In short: as §1

[3] = system: broad leaf weeds (Lindernia pyxidaria and Monochoria vaginalis); assay: as above; format: in vivo; conditions: 120 g/10a active ingredient, assessed 14 days after treatment, dry weight vs untreated area; for pest or weed control at 1200 g/ha: 336 h
In short: as §1

Echinochloa crus-galli [4] = assay: Test Example 3: herbicidal effect test by treatment of dry field farming soil (one day after seeding); format: in vivo; conditions: 120 g/10a active ingredient, evaluated 14 days after treatment; for pest or weed control at 1200 g/ha: Echinochloa crus-galli, 336 h, read-out: herbicidal rate, Echinochloa crus-galli
In short: (§2)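 Herbicidal rate (%) equals 1 minus treated/untreated mean plant dry weight, times 100, taken 14 days after treatment in duplicate pots. Emulsion diluted in water was applied at 100 L per 10 ares (120 g a.i. per 10 ares) one day after sowing 20 seeds per species into the top 1 cm of alluvial soil.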

Amaranthus viridis [5] = assay: as above; format: in vivo; conditions: 120 g/10a active ingredient, evaluated 14 days after treatment; for pest or weed control at 1200 g/ha: Amaranthus viridis, 336 h, read-out: herbicidal rate, Amaranthus viridis
In short: as §2

Chenopodium album [6] = assay: as above; format: in vivo; conditions: 120 g/10a active ingredient, evaluated 14 days after treatment; for pest or weed control at 1200 g/ha: Chenopodium album, 336 h, read-out: herbicidal rate, Chenopodium album
In short: as §2

southern crabgrass [7] = assay: as above; format: in vivo; conditions: 120 g/10a active ingredient, evaluated 14 days after treatment; for pest or weed control at 1200 g/ha: Digitaria ciliaris, 336 h, read-out: herbicidal rate, southern crabgrass
In short: as §2

Echinochloa crus-galli [8] = assay: Test Example 4: herbicidal effect test by treatment of leave and stem in dry field farming (seven days after seeding); format: in vivo; conditions: 120 g/10a active ingredient, emulsion sprayed seven days after seeding, evaluated 14 days after treatment; for pest or weed control at 1200 g/ha: Echinochloa crus-galli, 336 h, read-out: herbicidal effect (herbicidal rate), Echinochloa crus-galli
In short: (§3)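 Twenty seeds per species were mixed into the top 1 cm of alluvial soil in 36 cm^2 pots; emulsions were sprayed seven days after seeding at 100 L per 10 ares (120 g active ingredient per 10 ares). Herbicidal rate (%) = {1 − treated/untreated mean dry weight} × 100, 14 days after treatment, duplicate.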

Amaranthus viridis [9] = assay: as above; format: in vivo; conditions: 120 g/10a active ingredient, emulsion sprayed seven days after seeding, evaluated 14 days after treatment; for pest or weed control at 1200 g/ha: Amaranthus viridis, 336 h, read-out: herbicidal effect (herbicidal rate), Amaranthus viridis
In short: as §3

Chenopodium album [10] = assay: as above; format: in vivo; conditions: 120 g/10a active ingredient, emulsion sprayed seven days after seeding, evaluated 14 days after treatment; for pest or weed control at 1200 g/ha: Chenopodium album, 336 h, read-out: herbicidal effect (herbicidal rate), Chenopodium album
In short: as §3

southern crabgrass [11] = assay: as above; format: in vivo; conditions: 120 g/10a active ingredient, emulsion sprayed seven days after seeding, evaluated 14 days after treatment; for pest or weed control at 1200 g/ha: Digitaria ciliaris, 336 h, read-out: herbicidal effect (herbicidal rate), southern crabgrass
In short: as §3

Echinochloa crus-galli [12] = assay: Test Example 1: herbicidal effect test by treatment of rice paddy soil (immediately after seeding); format: in vivo; conditions: 120 g/10a active ingredient, dry weight vs untreated area, 14 days after treatment; for pest or weed control at 1200 g/ha: in Echinochloa crus-galli, 336 h, read-out: Herbicidal rate (%) Echinochloa crus-galli
In short: (§4)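 Application occurs immediately after seeding, with diluted emulsion added to paddy water (about 3 cm deep) over puddled, fertilized soil at 120 g active ingredient per 10 ares. Herbicidal rate is calculated from mean dry weight against untreated controls 14 days later.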

Scirpus juncoides [13] = assay: as above; format: in vivo; conditions: 120 g/10a active ingredient, dry weight vs untreated area, 14 days after treatment; for pest or weed control at 1200 g/ha: in Schoenoplectiella juncoides, 336 h, read-out: Herbicidal rate (%) Scirpus juncoides
In short: as §4

[14] = system: broad leaf weeds (Lindernia pyxidaria and Monochoria vaginalis); assay: as above; format: in vivo; conditions: 120 g/10a active ingredient, dry weight vs untreated area, 14 days after treatment; for pest or weed control at 1200 g/ha: 336 h
In short: as §4

[15] = Lindernia pyxidaria, read-out: herbicidal rate (%) Lindernia pyxidaria
[16] = Monochoria vaginalis, read-out: herbicidal rate (%) Monochoria vaginalis
[17] = Monochoria vaginalis, read-out: Herbicidal rate (%) Monochoria vaginalis
[18] = in Lindernia, Lindernia pyxidaria, read-out: Herbicidal rate (%) Lindernia pyxidaria

| Structure (SMILES) | pest or weed control at 1200 g/ha (Echinochloa crus-galli [1]) [%] | pest or weed control at 1200 g/ha (Scirpus juncoides [2]) [%] | pest or weed control at 1200 g/ha [3, 15] [%] | pest or weed control at 1200 g/ha [3, 16] [%] | pest or weed control at 1200 g/ha (Echinochloa crus-galli [4]) [%] | pest or weed control at 1200 g/ha (Amaranthus viridis [5]) [%] | pest or weed control at 1200 g/ha (Chenopodium album [6]) [%] | pest or weed control at 1200 g/ha (southern crabgrass [7]) [%] | pest or weed control at 1200 g/ha (Echinochloa crus-galli [8]) [%] | pest or weed control at 1200 g/ha (Amaranthus viridis [9]) [%] | pest or weed control at 1200 g/ha (Chenopodium album [10]) [%] | pest or weed control at 1200 g/ha (southern crabgrass [11]) [%] | pest or weed control at 1200 g/ha (Echinochloa crus-galli [12]) [%] | pest or weed control at 1200 g/ha (Scirpus juncoides [13]) [%] | pest or weed control at 1200 g/ha [14, 17] [%] | pest or weed control at 1200 g/ha [14, 18] [%] | melting point [°C] | Herbicidal rate (%) Echinochloa crus-galli (Echinochloa crus-galli [1]) [%] | Herbicidal rate (%) Scirpus juncoides (Scirpus juncoides [2]) [%] | Herbicidal rate (%) Lindernia pyxidaria ([3]; Lindernia pyxidaria) [%] | other results |
| --- | --- | --- | --- | --- | --- | --- | --- | --- | --- | --- | --- | --- | --- | --- | --- | --- | --- | --- | --- | --- | --- |
| COCC(C)n1oc(=O)c(Cc2ccccc2NS(=O)(=O)C(F)(F)F)c1C (stereo not shown) [Compound 1-149, 1,1,1-trifluoro-N-[2-[[2-(2-methoxy-1-methyl-ethyl)-3-methyl-5-oxo-isoxazol-4-yl]methyl]phenyl]methanesulfonamide] | 100 | 90 | 90 | 90 | 90 | 40 | 40 | 90 | 90 | 40 | 40 | 90 | 90 | 90 | 90 | 90 | 107 to 109 |  |  |  |  |
| CCC(C)n1oc(=O)c(Cc2ccccc2N(C(=O)OC)S(=O)(=O)C(F)(F)F)c1C (stereo not shown) [Compound 1-577, methyl N-[2-[(3-methyl-5-oxo-2-sec-butyl-isoxazol-4-yl)methyl]phenyl]-N-(trifluoromethylsulfonyl)carbamate] | 90 | 90 | 90 | 90 | 90 | 90 | 90 | 90 | 90 | 40 | 40 | 90 | 90 | 90 | 90 | 90 | 75 to 80 |  |  |  |  |
| COCC(C)n1oc(=O)c(Cc2ccccc2N(S(=O)(=O)C(F)(F)F)S(=O)(=O)C(F)(F)F)c1C (stereo not shown) [Compound 1-997, 1,1,1-trifluoro-N-[2-[[2-(2-methoxy-1-methyl-ethyl)-3-methyl-5-oxo-isoxazol-4-yl]methyl]phenyl]-N-(trifluoromethylsulfonyl)methanesulfonamide] | 90 | 90 | 70 | 90 | 90 | 50 | 50 | 90 | 70 | 40 | 0 | 40 | 90 | 90 | 80 | 90 | 116 to 118 |  |  |  |  |
| Cc1c(Cc2ccccc2N(S(=O)(=O)C(F)(F)F)S(=O)(=O)C(F)(F)F)c(=O)on1CC(C)C [Compound 1-967, 1,1,1-trifluoro-N-[2-[(2-isobutyl-3-methyl-5-oxoisoxazol-4-yl)methyl]phenyl]-N-(trifluoromethylsulfonyl)methanesulfonamide] | 90 | 80 | 100 | 90 | 50 | 80 | 40 | 90 | 60 | 40 | 40 | 0 | 90 | 90 | 100 | 90 | 120 to 122 |  |  |  |  |
| CCC(C)Cn1oc(=O)c(Cc2ccccc2N(C(=O)OCCOC)S(=O)(=O)C(F)(F)F)c1C (stereo not shown) [Compound 1-733] |  |  |  |  |  |  |  |  |  |  |  |  |  |  |  |  |  | 100 | 90 | 70 | Herbicidal rate (%) Monochoria vaginalis ([3]; Monochoria vaginalis): 90%; herbicidal rate, Echinochloa crus-galli (Echinochloa crus-galli [4]): 100%; herbicidal rate, Amaranthus viridis (Amaranthus viridis [5]): 80%; herbicidal rate, Chenopodium album (Chenopodium album [6]): 60%; herbicidal rate, southern crabgrass (southern crabgrass [7]): 100%; herbicidal effect (herbicidal rate), Echinochloa crus-galli (Echinochloa crus-galli [8]): 90%; herbicidal effect (herbicidal rate), Amaranthus viridis (Amaranthus viridis [9]): 60%; herbicidal effect (herbicidal rate), Chenopodium album (Chenopodium album [10]): 60%; herbicidal effect (herbicidal rate), southern crabgrass (southern crabgrass [11]): 80%; Herbicidal rate (%) Echinochloa crus-galli (Echinochloa crus-galli [12]): 100%; Herbicidal rate (%) Scirpus juncoides (Scirpus juncoides [13]): 100%; Herbicidal rate (%) Lindernia pyxidaria ([14]; Lindernia pyxidaria): 90%; Herbicidal rate (%) Monochoria vaginalis ([14]; Monochoria vaginalis): 90% |
| Cc1c(Cc2ccccc2N(C(=O)OCc2ccccc2)S(=O)(=O)C(F)(F)F)c(=O)on1CC(C)C [Compound 1-785] |  |  |  |  |  |  |  |  |  |  |  |  |  |  |  |  |  | 90 | 90 | 90 | Herbicidal rate (%) Monochoria vaginalis ([3]; Monochoria vaginalis): 90%; herbicidal rate, Echinochloa crus-galli (Echinochloa crus-galli [4]): 90%; herbicidal rate, Amaranthus viridis (Amaranthus viridis [5]): 90%; herbicidal rate, Chenopodium album (Chenopodium album [6]): 90%; herbicidal rate, southern crabgrass (southern crabgrass [7]): 90%; herbicidal effect (herbicidal rate), Echinochloa crus-galli (Echinochloa crus-galli [8]): 90%; herbicidal effect (herbicidal rate), Amaranthus viridis (Amaranthus viridis [9]): 40%; herbicidal effect (herbicidal rate), Chenopodium album (Chenopodium album [10]): 40%; herbicidal effect (herbicidal rate), southern crabgrass (southern crabgrass [11]): 90%; Herbicidal rate (%) Echinochloa crus-galli (Echinochloa crus-galli [12]): 90%; Herbicidal rate (%) Scirpus juncoides (Scirpus juncoides [13]): 90%; Herbicidal rate (%) Lindernia pyxidaria ([14]; Lindernia pyxidaria): 90%; Herbicidal rate (%) Monochoria vaginalis ([14]; Monochoria vaginalis): 90% |

From US11109593B2, “Isoxazolin-5-one derivative and herbicide containing same as active ingredient” (HOKKO CHEMICAL INDUSTRY CO., LTD., priority 2017, dated 2021)
